Like-named read-outs stand apart in the source and are kept apart here.
Target: T1, CBL-B (Homo sapiens, UniProt Q13191)
T1 construct: GST
Test: CBL-B TR-FRET IC50 screening (E1/E2 ubiquitination, Biotin-Ubiquitin, Anti GST-Tb donor / Streptavidin-d2 acceptor)
Format: biochemical

[1] = second part of Table 2 (head 'Patent Cmpd No / Updated Activity'), same CBL-B TR-FRET IC50 bins A-F, read-out: Updated Activity
[2] = CBL-B 10 nM final, 11-point titration from 100 uM, binned A-F, read-out: CBL-B TR-FRET activity IC50

T1 sequence (Q13191 whole entry): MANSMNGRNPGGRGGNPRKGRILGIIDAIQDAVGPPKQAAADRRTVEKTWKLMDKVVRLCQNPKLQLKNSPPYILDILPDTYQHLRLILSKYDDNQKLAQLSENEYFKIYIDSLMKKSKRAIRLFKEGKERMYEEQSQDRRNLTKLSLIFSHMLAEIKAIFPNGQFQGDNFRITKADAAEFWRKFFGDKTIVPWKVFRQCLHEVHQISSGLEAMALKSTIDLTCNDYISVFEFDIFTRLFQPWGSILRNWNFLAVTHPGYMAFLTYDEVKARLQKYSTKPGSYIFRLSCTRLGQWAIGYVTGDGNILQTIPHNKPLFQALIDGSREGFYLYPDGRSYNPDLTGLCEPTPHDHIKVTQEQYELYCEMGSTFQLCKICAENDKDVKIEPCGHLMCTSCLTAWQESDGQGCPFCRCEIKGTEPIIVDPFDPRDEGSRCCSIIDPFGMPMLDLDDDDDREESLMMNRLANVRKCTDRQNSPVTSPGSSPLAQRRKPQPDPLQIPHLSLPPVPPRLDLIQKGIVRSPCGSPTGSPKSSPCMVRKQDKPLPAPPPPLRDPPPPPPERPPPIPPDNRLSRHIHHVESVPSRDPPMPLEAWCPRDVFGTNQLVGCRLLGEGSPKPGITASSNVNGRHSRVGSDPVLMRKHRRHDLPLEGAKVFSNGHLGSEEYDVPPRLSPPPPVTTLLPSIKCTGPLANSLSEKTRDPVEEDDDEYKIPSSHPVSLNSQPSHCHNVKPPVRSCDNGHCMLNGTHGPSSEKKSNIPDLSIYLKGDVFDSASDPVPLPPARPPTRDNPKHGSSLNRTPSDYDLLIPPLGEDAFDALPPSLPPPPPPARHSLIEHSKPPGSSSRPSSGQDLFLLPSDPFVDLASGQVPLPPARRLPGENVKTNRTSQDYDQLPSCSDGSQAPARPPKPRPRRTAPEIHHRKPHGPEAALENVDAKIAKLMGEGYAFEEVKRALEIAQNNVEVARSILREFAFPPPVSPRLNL

Row | Compound | IC50 [1] [nM] | IC50 [2] [nM]
1 | Cc1cnnn1[C@@H](c1cccc(-n2cc3c(C(F)(F)F)cc(CN4CCC[C@H](C)C4)cn3c2=O)c1)C1CCC1 (single isomer, unassigned) [Compound 583] | 3000 to 10000 | 
2 | C[C@H]1CCCN(Cc2cc(C(F)(F)F)c3cn(-c4cccc([C@@H](c5nc(CO)cn5C)C5CCC5)c4)c(=O)n3c2)C1 (single isomer, unassigned) [Compound 584] | > 10000 | 
3 | C[C@H]1CCCN(Cc2cc(C(F)(F)F)c3cn(-c4cccc([C@H](c5nc(CO)cn5C)C5CCC5)c4)c(=O)n3c2)C1 (single isomer, unassigned) [Compound 585] | > 10000 | 
4 | C[C@@H]1CN(Cc2cc(C(F)(F)F)c3cn(-c4cccc([C@H](c5nncn5C)C5CCC5)c4)c(=O)n3c2)CC[C@H]1O (single isomer, unassigned) [Compound 586] | < 100 | 
5 | C[C@H]1C[C@@H](O)CN(Cc2cc(C(F)(F)F)c3cn(-c4cccc([C@H](c5nncn5C)C5CCC5)c4)c(=O)n3c2)C1 (single isomer, unassigned) [Compound 587] | < 100 | 
6 | C[C@H]1CN(Cc2cc(C(F)(F)F)c3cn(-c4cccc([C@H](c5nncn5C)C5CCC5)c4)c(=O)n3c2)CC[C@@H]1O (single isomer, unassigned) [Compound 588] | < 100 | 
7 | C[C@@H]1C[C@H](O)CN(Cc2cc(C(F)(F)F)c3cn(-c4cccc([C@H](c5nncn5C)C5CCC5)c4)c(=O)n3c2)C1 (single isomer, unassigned) [Compound 589] | < 100 | 
8 | C[C@@H]1CC(=O)NN1Cc1cc(C(F)(F)F)c2cn(-c3cccc([C@H](c4nncn4C)C4CCC4)c3)c(=O)n2c1 (single isomer, unassigned) [Compound 598] | < 100 | 
9 | C[C@H]1CC(=O)NN1Cc1cc(C(F)(F)F)c2cn(-c3cccc([C@H](c4nncn4C)C4CCC4)c3)c(=O)n2c1 (single isomer, unassigned) [Compound 599] | < 100 | 
10 | CO[C@H]1C[C@@](c2cccc(-n3cc4c(C(F)(F)F)cc([C@@H](C)N5CCC[C@H](C)C5)cn4c3=O)c2)(c2nncn2C)C1 (single isomer, unassigned) [Compound 600] | < 100 | 
11 | CO[C@H]1C[C@@](c2cccc(-n3cc4c(C(F)(F)F)cc([C@H](C)N5CCC[C@H](C)C5)cn4c3=O)c2)(c2nncn2C)C1 (single isomer, unassigned) [Compound 601] | < 100 | 
12 | CO[C@H]1C[C@@](c2cccc(-n3cc4c(C(F)(F)F)cc([C@@H](C)N5CCC(F)CC5)cn4c3=O)c2)(c2nncn2C)C1 (single isomer, unassigned) [Compound 602] | 301 to 1000 | 
13 | CO[C@H]1C[C@@](c2cccc(-n3cc4c(C(F)(F)F)cc([C@H](C)N5CCC(F)CC5)cn4c3=O)c2)(c2nncn2C)C1 (single isomer, unassigned) [Compound 603] | < 100 | 
14 | CO[C@H]1C[C@](c2cccc(-n3cc4c(C(F)(F)F)cc([C@@H](C)N5CCC[C@H](C)C5)cn4c3=O)c2)(c2nncn2C)C1 (single isomer, unassigned) [Compound 604] | < 100 | 
15 | CO[C@H]1C[C@](c2cccc(-n3cc4c(C(F)(F)F)cc([C@H](C)N5CCC[C@H](C)C5)cn4c3=O)c2)(c2nncn2C)C1 (single isomer, unassigned) [Compound 605] | < 100 | 
16 | CO[C@H]1C[C@](c2cccc(-n3cc4c(C(F)(F)F)cc([C@@H](C)N5CCC(F)CC5)cn4c3=O)c2)(c2nncn2C)C1 (single isomer, unassigned) [Compound 606] | 100 to 300 | 
17 | CO[C@H]1C[C@](c2cccc(-n3cc4c(C(F)(F)F)cc([C@H](C)N5CCC(F)CC5)cn4c3=O)c2)(c2nncn2C)C1 (single isomer, unassigned) [Compound 607] | < 100 | 
18 | C[C@H](c1cc(C(F)(F)F)c2cn(-c3cccc([C@H](c4nncn4C)C4CCC4)c3)c(=O)n2c1)N1CCC[C@@H](C(F)(F)F)C1 (single isomer, unassigned) [Compound 613] | < 100 | 
19 | C[C@@H](c1cc(C(F)(F)F)c2cn(-c3cccc([C@H](c4nncn4C)C4CCC4)c3)c(=O)n2c1)N1CCC[C@@H](C(F)(F)F)C1 (single isomer, unassigned) [Compound 614] | < 100 | 

Row | Compound | IC50 [1] [nM] | IC50 [2] [nM]
20 | CO[C@H]1C[C@@](c2cccc(-n3cc4c(C(F)(F)F)cc([C@@H](C)N5CC[C@H](F)C5)cn4c3=O)c2)(c2nncn2C)C1 (single isomer, unassigned) [Compound 615] | 301 to 1000 | 
21 | CO[C@H]1C[C@@](c2cccc(-n3cc4c(C(F)(F)F)cc([C@H](C)N5CC[C@H](F)C5)cn4c3=O)c2)(c2nncn2C)C1 (single isomer, unassigned) [Compound 616] | < 100 | 
22 | CO[C@H]1C[C@](c2cccc(-n3cc4c(C(F)(F)F)cc([C@@H](C)N5CC[C@@H](F)C5)cn4c3=O)c2)(c2nncn2C)C1 (single isomer, unassigned) [Compound 617] | 100 to 300 | 
23 | CO[C@H]1C[C@](c2cccc(-n3cc4c(C(F)(F)F)cc([C@H](C)N5CC[C@@H](F)C5)cn4c3=O)c2)(c2nncn2C)C1 (single isomer, unassigned) [Compound 618] | 100 to 300 | 
24 | Cn1cnnc1[C@H](c1cc(F)cc(-n2cc3c(C(F)(F)F)cc(CN4CC(F)(F)C4)cn3c2=O)c1)C1CCC1 (single isomer, unassigned) [Compound 619] | > 10000 | 
25 | Cn1cnnc1[C@@H](c1cc(F)cc(-n2cc3c(C(F)(F)F)cc(CN4CC(F)(F)C4)cn3c2=O)c1)C1CCC1 (single isomer, unassigned) [Compound 620] | 100 to 300 | 
26 | CN1CC[C@]2(CCN(Cc3cc(C(F)(F)F)c4cn(-c5cccc([C@H](c6nncn6C)C6CCC6)c5)c(=O)n4c3)C2)C1=O (single isomer, unassigned) [Compound 621] | < 100 | 
27 | CN1CC[C@@]2(CCN(Cc3cc(C(F)(F)F)c4cn(-c5cccc([C@H](c6nncn6C)C6CCC6)c5)c(=O)n4c3)C2)C1=O (single isomer, unassigned) [Compound 623] | < 100 | 
28 | CC(Cc1nncn1C)c1cccc(-n2cc3c(C(F)(F)F)cccn3c2=O)c1 (stereo not drawn) [Compound 1] |  | 301 to 1000
29 | C[C@H](Cc1nncn1C)c1cccc(-n2cc3c(C(F)(F)F)cccn3c2=O)c1 [Compound 2] |  | 301 to 1000
30 | C[C@@H](Cc1nncn1C)c1cccc(-n2cc3c(C(F)(F)F)cccn3c2=O)c1 [Compound 3] |  | 3000 to 10000
31 | Cn1cnnc1CC1CCc2c1cccc2-n1cc2c(C(F)(F)F)cccn2c1=O (stereo not drawn) [Compound 4] |  | > 10000
32 | C[C@@H](Sc1nncn1C)c1cccc(-n2cc3c(C(F)(F)F)cccn3c2=O)c1 [Compound 5] |  | > 10000
33 | C[C@H](Sc1nncn1C)c1cccc(-n2cc3c(C(F)(F)F)cccn3c2=O)c1 [Compound 6] |  | > 10000
34 | Cn1cnnc1CC1(c2cccc(-n3cc4c(C(F)(F)F)cc(Br)cn4c3=O)c2)COC1 [Compound 7] |  | 100 to 300
35 | C=Cc1cc(C(F)(F)F)c2cn(-c3cccc(C4(Cc5nncn5C)COC4)c3)c(=O)n2c1 [Compound 8] |  | 100 to 300
36 | Cn1cnnc1CC1(c2cccc(-n3cc4c(C(F)(F)F)cccn4c3=O)c2)COC1 [Compound 9] |  | 100 to 300
37 | Cn1cnnc1CC1(c2cccc(-n3cc4c(C(F)(F)F)cc(CN5CCC6(CC6)C5)cn4c3=O)c2)COC1 [Compound 10] |  | < 100
38 | Cn1cnnc1CC1(c2cccc(-n3cc4c(C(F)(F)F)cc(CN5CCC(C)(F)CC5)cn4c3=O)c2)COC1 [Compound 11] |  | < 100

Row | Compound | IC50 [1] [nM] | IC50 [2] [nM]
39 | C[C@@H]1CN(Cc2cc(C(F)(F)F)c3cn(-c4cccc(C5(Cc6nncn6C)COC5)c4)c(=O)n3c2)CCO1 [Compound 12] |  | < 100
40 | Cn1cnnc1CC1(c2cccc(-n3cc4c(C(F)(F)F)cc(CN5CCC(F)CC5)cn4c3=O)c2)COC1 [Compound 13] |  | < 100
41 | Cn1cnnc1CC1(c2cccc(-n3cc4c(C(F)(F)F)cc(CN5CC[C@H](F)C5)cn4c3=O)c2)COC1 [Compound 14] |  | < 100
42 | CN1CC2CCC(C1)N2c1cc(C(F)(F)F)c2cn(-c3cccc(C4(Cc5nncn5C)COC4)c3)c(=O)n2c1 [Compound 15] |  | 100 to 300
43 | Cn1cnnc1C[C@@H]1CCc2c1cccc2-n1cc2c(C(F)(F)F)cccn2c1=O [Compound 17] |  | > 10000
44 | Cn1cnnc1CC1(c2cccc(-n3cc4c(C(F)(F)F)cc(C#N)cn4c3=O)c2)COC1 [Compound 18] |  | 100 to 300
45 | CC(=O)c1cc(C(F)(F)F)c2cn(-c3cccc(C4(Cc5nncn5C)COC4)c3)c(=O)n2c1 [Compound 19] |  | 1000 to 3000
46 | Cn1cnnc1CC1(c2cccc(-n3cc4c(C(F)(F)F)cc(C(=O)O)cn4c3=O)c2)COC1 [Compound 20] |  | 3000 to 10000
47 | Cn1cnnc1CC1(c2cccc(-n3cc4c(C(F)(F)F)cc(CN5CC6(CC6)C5)cn4c3=O)c2)COC1 [Compound 21] |  | < 100
48 | Cn1cnnc1CC1(c2cccc(-n3cc4c(C(F)(F)F)cc(CN5CCC[C@H](F)C5)cn4c3=O)c2)COC1 [Compound 22] |  | < 100
49 | Cn1cnnc1CC1(c2cccc(-n3cc4c(C(F)(F)F)cc(CN5CC(F)C5)cn4c3=O)c2)COC1 [Compound 23] |  | < 100
50 | Cn1cnnc1CC1(c2cccc(-n3cc4c(C(F)(F)F)cc(CN5CC[C@@H](C#N)C5)cn4c3=O)c2)COC1 [Compound 24] |  | < 100
51 | Cn1cnnc1CC1(c2cccc(-n3cc4c(C(F)(F)F)cc(CN5CC6CC6C5)cn4c3=O)c2)COC1 (stereo not drawn) [Compound 25] |  | < 100
52 | Cn1cnnc1C(F)(F)[C@](C)(F)c1cccc(-n2cc3c(C(F)(F)F)cc(CN4CC[C@H](F)C4)cn3c2=O)c1 [Compound 26] |  | 100 to 300
53 | Cc1c2c(C(F)(F)F)cccn2c(=O)n1-c1cccc(C(C)Cc2nncn2C)c1 (stereo not drawn) [Compound 27] |  | > 10000
54 | Cn1cnnc1C(F)(F)[C@@](C)(F)c1cccc(-n2cc3c(C(F)(F)F)cc(CN4CC[C@H](F)C4)cn3c2=O)c1 [Compound 28] |  | 100 to 300
55 | C[C@H]1CCCN(Cc2cc(C(F)(F)F)c3cn(-c4cccc(C5(Cc6nncn6C)COC5)c4)c(=O)n3c2)C1 [Compound 29] |  | < 100
56 | CNC(=O)c1cc(C(F)(F)F)c2cn(-c3cccc(C4(Cc5nncn5C)COC4)c3)c(=O)n2c1 [Compound 30] |  | 1000 to 3000
57 | CN(C)C(=O)c1cc(C(F)(F)F)c2cn(-c3cccc(C4(Cc5nncn5C)COC4)c3)c(=O)n2c1 [Compound 31] |  | 301 to 1000
